{"source": "patent US10426740B1", "about": "“Compositions and methods to inhibit stem cell and progenitor cell binding to lymphoid tissue and for regenerating germinal centers in lymphatic tissues” (AVM BIOTECHNOLOGY, LLC, priority 2010, dated 2019)", "key": {"[1]": {"test_system": "tumor necrosis factor-alpha", "conditions": "cited from earlier work"}, "[2]": {"test_system": "equine bone marrow MSC", "assay": "Equine bone marrow CFU-F assay after IV dexamethasone (Example 21)", "assay_type": "in vivo, horse", "conditions": "Day 14 after plating; 3.18 mg/kg (HED 6 mg/kg) IV; placebo about 46.6"}, "[3]": {"test_system": "blood lymphocytes", "assay": "Blood lymphocytes (CBC) after oral dexamethasone (Example 20)", "assay_type": "in vivo, mouse", "conditions": "placebo about 1700"}, "[4]": {"test_system": "equine bone marrow MSC", "assay": "Osteocyte, chondrocyte and adipocyte differentiation of MSC from treated horses (Example 21)", "assay_type": "in vivo, horse", "conditions": "for osteocyte differentiation: not different", "description": "1 g of Alizarin Red S (Sigma-Aldrich) was mixed with 50 ml of DI water to make a 50 ml solution of Alizarin Red S 2%. The pH of the Alizarin Red S solution was adjusted to 4.1-4.3 using ammonium hydroxide. The solution was filtered through a vacuum filtration system, then transferred to a 50 ml conical tube and stored protected from light.\n250 mg of Oil Red O (Sigma-Aldrich) was added to 50 mL of isopropanol to make a 50 ml solution of Oil Red O 0.5%. The solution was mixed well, then filtered through a vacuum filtration system. After that, it was stored as a stock solution in a 50 ml conical tube wrapped in aluminum foil protected from light. On the staining day, 3 parts of stock Oil Red O 0.5% were mixed with 2 parts of DI water to make a working stock solution. This solution was incubated for 10 min and the forming precipitate removed by filtration through a sterile filter.\n50 mg of Safranin O (Sigma-Aldrich) was added to 50 ml of DI water to make a 50 ml solution of Safranin O 0.1%. The solution was mixed well, then filtered through a vacuum filtration system. After that, it was stored in 50 ml conical tube protected from light.\nAfter BM withdrawal from each vial for the Giemsa staining assay, another 100 μl of BM was withdrawn, and plated in CFU-F assay media (10 ml medium per T25 flasks; 2× total) 36 hours after it was extracted from the horse. MSCs were passaged in MesenCult™ MSC Basal Medium (Human; growth medium; including stimulatory supplement) until passage number 3 (P3). After trypsinization of the cells, they were mixed with an equivalent volume of growth medium, centrifuged (230 g for 3 min at RT) and resuspended in 1 ml of growth medium. Cells were counted and seeded using 30,000 cells/well of a 12 well plate (30,000 cells/well seeded in 3 wells; T1, T2 and one negative control). The seeded cells (P4) of T1 and T2 were left expanding in growth medium for two days, followed by a medium change into osteocyte differentiation medium (Stem Pro Osteocyte Differentiation Basal Medium and supplement; Gibco). The latter was changed every 2-3 days for all the plates. Morphological changes were documented by taking images using the EVOS XL Core microscope. Day 1 corresponds to MSCs being in differentiation medium for 24 h, Day 2 for 48 h etc. Two time points (T1: Day 4 and T2: Day 7 with one 12-well plate for both time points) were chosen for the osteocyte staining (Alizarin Red S) to assess the onset as well as the differentiation extent of MSCs from AVM0703 vs Placebo treated horses. […]\nMSCs were passaged in MesenCult™ MSC Basal Medium (Human; including stimulatory supplement) until passage number 4 (P4). […] Cells were counted and seeded using a density of 80,000 cells/well of a 12 well plate (80,000 cells/well seeded in 3 wells; T1, T2 and one negative control). […]"}, "[5]": {"test_system": "spleen", "assay": "In vivo sequestration of injected CTG-labeled MNC in the spleen, flow cytometry (Example 9)", "design": "species or system mouse", "conditions": "cells injected day 7, one hour"}, "[6]": {"test_system": "germinal center", "assay": "Germinal center intensity by FITC-PNA in spleen (Example 18)", "assay_type": "in vivo, mouse", "conditions": "about 48 hours, controls approximately 40", "description": "The mice were sacrificed by exsanguination and then residual blood cells flushed out with 5 U heparin/ml PBS via retrograde flush into the thoracic jugular vein. The spleens were removed, weighed wet, and then fixed in 10% formalin. Subsequently the spleens were sectioned via proprietary methods and then incubated with FITC-PNA at 4 deg.C for 24 hours, washed, placed on slides and immunofluorescent images were captured. Metamorph software was used to quantify the immunofluorescent signal. Average germinal center intensity measured by FITC-PNA average intensity was approximately 40 in controls, reduced to about 33 at the 6 mg/kg HED, reduced to about 22.5 at the 9 mg/kg HED, and further reduced to about 15 at the 11 mg/kg HED."}, "[7]": {"test_system": "osteoarthritis (OA), tendon injury, or osteochondral defect", "assay": "Equine outcome after stem cell (MSC) injection with dexamethasone pretreatment (Example 16)", "assay_type": "in vivo", "conditions": "5.7 mg/kg HED, one horse", "description": "Approximately 48 hours later male or female horses with osteoarthritis (OA), tendon injury, or osteochondral defect were intra-articularly (IA) or intra-tendon injected with either allogeneic adipose-derived mesenchymal stem cells (MSCs) or with autologous, bone marrow derived culture expanded MSCs."}, "[8]": {"test_system": "active germinal centers in the spleen", "assay": "Dexamethasone pretreatment: ex vivo stem cell binding to splenic sections, spleen weight, MNC and germinal centers (Example 8)"}, "[9]": {"test_system": "spleen", "assay": "Splenic sequestration and circulating numbers of injected CTG-labeled stem cells, flow cytometry (Example 14)", "assay_type": "in vivo, mouse", "conditions": "1 mg IP days -7, -4, -1 (HED 7.4 mg/kg)", "source_text": "Control mice (n=4) were IP injected with the same volume per body weight of 70% ethanol diluted 1:10 in PBS. Sixty minutes later the mice were sacrificed by exsanguination and spleens and blood collected for flow cytometry. The spleens were dissociated to single cell suspensions prior to flow cytometry. CTG-labeled bone marrow mononuclear stem cells were detected in the spleen and lysed whole blood using flow cytometry."}, "[10]": {"conditions": "single 1 mg, 7 days prior to harvest"}}, "data": [{"smiles": "Nc1cccc2c1CN(C1CCC(=O)NC1=O)C2=O", "note": "(stereo not drawn) [Lenalidomide]", "values": [{"measurement": "potency in inhibiting tumor necrosis factor-alpha relative to thalidomide", "setting": "[1]", "value": "50,000 times"}]}, {"smiles": "C[C@@H]1C[C@H]2[C@@H]3CCC4=CC(=O)C=C[C@]4(C)[C@@]3(F)[C@@H](O)C[C@]2(C)[C@@]1(O)C(=O)CO", "note": "[dexamethasone]", "values": [{"measurement": "MSC number (CFU-F)", "setting": "[2]", "value": "about 78.8 CFU-F"}, {"measurement": "lymphocytes", "setting": "[3]; single acute HED 12 mg/kg oral on day -2", "value": "about 170 per microliter"}, {"measurement": "lymphocytes", "setting": "[3]; two repeat doses HED 6 mg/kg oral, day -2 and day -1", "value": "about 1000 per microliter"}, {"measurement": "osteocyte differentiation", "setting": "[4]; day 4 of assay, placebo 1.75", "value": 3.19}, {"measurement": "chondrocyte culture area", "setting": "[4]; day 6 of assay, placebo 23.4%", "value": 40.1, "unit": "%"}, {"measurement": "osteocyte differentiation", "setting": "[4]; day 7 of assay, placebo 4.29", "value": 4.58}, {"measurement": "adipocyte numbers", "setting": "[4]; day 24 of assay, placebo 4.8, no difference", "value": 7.4, "unit": "adipocytes"}, {"measurement": "reduction of MNC CTG total cell number accumulation in the spleen", "setting": "[5]; 3 mgs total (1 mg ip day 0, 2 and 5)", "value": "approximately 70%"}, {"measurement": "reduction of MNC CTG total cell number accumulation in the spleen", "setting": "[5]; total 2 mgs (1 mg ip day 0 and day 4)", "value": "33-43%"}, {"measurement": "average germinal center intensity measured by FITC-PNA average intensity", "setting": "[6]; 6 mg/kg HED IP", "value": "about 33"}, {"measurement": "average germinal center intensity measured by FITC-PNA average intensity", "setting": "[6]; 9 mg/kg HED IP", "value": "about 22.5"}, {"measurement": "average germinal center intensity measured by FITC-PNA average intensity", "setting": "[6]; 11 mg/kg HED IP", "value": "about 15"}, {"measurement": "return to work, tendon injury (DDFT grade 3)", "setting": "[7]", "value": "≤ 6", "unit": "months"}, {"measurement": "reduction of mononuclear stem cell binding to spleen sections", "setting": "[8]; day 7 after single 1 mg IP", "value": "30-40%"}, {"measurement": "increase of percentage of stem cells within MNC fractions from whole blood or bone marrow compared to control (average)", "setting": "[8]; [10]", "value": 32, "unit": "%"}, {"measurement": "reduction of PNA labeled germinal centers", "setting": "[8]; [10]", "value": "up to 24%"}, {"measurement": "reduction of average circulating MNC number", "setting": "[8]; [10]", "value": 34, "unit": "%"}, {"measurement": "reduction of spleen weights (average)", "setting": "[8]; [10]", "value": 22, "unit": "%"}, {"measurement": "circulating numbers of CTG-stem cells", "setting": "[9]; controls 4,500", "value": "49,000 CTG-stem cells"}, {"measurement": "splenic sequestration 60 minutes after injection", "setting": "[9]; controls 665,000", "value": "285,000 CTG-stem cells"}]}]}
